The subject of this test is Staphylococcus aureus strain FRI-1169. The test is described as follows: microbe, parasite or virus in culture. To be noted: for inhibition at 0.1 % / inhibition at 0.5 % / inhibition at 1 % / inhibition at 10 %: Staphylococcus aureus; for inhibition at 0.1 %: FRI1169, read-out: Reduction in TSST-1 Formation, Example 11: test tampon comprising 0.1% fatty acid ester; for inhibition at 0.5 %: FRI1169, read-out: Reduction in TSST-1 Formation, Example 11: test tampon comprising 0.5% fatty acid ester; for inhibition at 10 %: FRI1169, read-out: Reduction in TSST-1 Formation, Example 11: test tampon comprising 10% fatty acid ester. The class given is cell-based.

[1] abbreviates: Example 11: test tampon comprising 0.1% fatty acid ester.
The mark [2] stands for this setting: Example 11: test tampon comprising 0.5% fatty acid ester.
The mark [3] stands for this setting: Example 11: test tampon comprising 1.0% fatty acid ester.
Setting [4] is: Example 11: test tampon comprising 10% fatty acid ester.
The mark [5] stands for this setting: FRI1169, read-out: Reduction in TSST-1 Formation, Example 11: test tampon comprising 1.0% fatty acid ester.
[6] abbreviates: Example 8: test tampon comprising 1% by weight of the ester, 24 hours at 37°C.
The mark [7] stands for this setting: Example 8: test tampon comprising 1% by weight of the ester, 24 hours at 37°C, ELISA.
Where [8] appears, read: FRI1169, read-out: REDUCTION IN TSST-1 FORMATION, Example 8: test tampon comprising 1% by weight of the ester, vs untreated control tampon.

Where two headings read alike, the source gives them in different places.

On to `CCCCCCCCCCCC(=O)OCC(C)O` (stereo not drawn) [Tampon 1, 2-Hydroxy-1-propyl laurate], for which the inhibition at 0.1 % was about 7%, the inhibition at 0.5 % stood at 85% and the inhibition at 10 % amounted to 99%. Besides, under setting [1], the “Log of Final Concn. of S. aureus” value is reported as 9.1 /ml and the “Total Amount TSST-1 Produced” value is 7.93 »g. Under setting [2], the “Log of Final Concn. of S. aureus” value is 7.64 /ml and the “Total Amount TSST-1 Produced” value is 1.25 »g. Also, under setting [3], the “Log of Final Concn. of S. aureus” value is given as 8.79 /ml and the “Total Amount TSST-1 Produced” value was 0.09 »g. In addition, under setting [4], the “Log of Final Concn. of S. aureus” value was 8.37 /ml and the “Total Amount TSST-1 Produced” value is reported as 0.05 »g. In addition, under setting [5], the inhibition at 1 % is about 99%.
Take `CCCCCCCCCCCC(=O)OCCOCCO` [Tampon 2, Diethylene glycol monolaurate]: the inhibition at 0.1 % was 99%, the inhibition at 0.5 % is 99% and the inhibition at 10 % amounted to 99%. For the same compound, under setting [1], the “Log of Final Concn. of S. aureus” value is recorded as 8.45 /ml and the “Total Amount TSST-1 Produced” value is recorded as 0.12 »g. Further, under setting [2], the “Log of Final Concn. of S. aureus” value is on record as 7.40 /ml and the “Total Amount TSST-1 Produced” value is 0.01 »g. Under setting [3], the “Log of Final Concn. of S. aureus” value is on record as 6.13 /ml and the “Total Amount TSST-1 Produced” value was 0.01 »g. Besides, under setting [4], the “Log of Final Concn. of S. aureus” value is 7.42 /ml and the “Total Amount TSST-1 Produced” value is 0.11 »g. In addition, under setting [5], the inhibition at 1 % is about 99%.
`CCCCCCCCCCCC(=O)OCC(O)CO` (stereo not drawn) [Tampon No. 2, Glyceryl monolaurate]: under setting [6], the “FINAL CONCENTRATION OF S. AUREUS CELLS, log to the base 10” value is given as 6.81 /ml. The “Total Amount TSST-1 Produced” value under setting [7] is 0.14 »g. Also, under setting [8], the inhibition at 1 % is 99.1%.
For `CCCCCCCCCCCCCC(=O)OCC(O)CO` (stereo not drawn) [Tampon No. 3, Glyceryl monomyristate] the same measures were 8.70 /ml, 0.58 »g and 96.6%.
In the case of `CCCCCCCCCCCCCCCC(=O)OCC(O)CO` (stereo not drawn) [Tampon No. 4, Glyceryl monopalmitate], the “FINAL CONCENTRATION OF S. AUREUS CELLS, log to the base 10” value under setting [6] is 9.15 /ml. The “Total Amount TSST-1 Produced” value under setting [7] is 1.75 »g. Further, the inhibition at 1 % under setting [8] amounted to 89.7%.
For `CCCCCCCCCCCCCCCCCC(=O)OCC(O)CO` (stereo not drawn) [Tampon No. 5, Glyceryl monostearate], in that order: 8.78 /ml, 6.43 »g and 60%.
For `CCCCCCCC/C=C\CCCCCCCC(=O)OCC(O)CO` (stereo not drawn) [Tampon No. 6, Glyceryl monooleate], in that order: 8.83 /ml, 1.01 »g and 94.1%.

For the origin of these results see patent EP0395099B1 (priority 1989, dated 1990).
